Among the test systems are SK-MEL-5 melanoma; SK-MEL-2 melanoma; HOP-62 NSCLC; SF-539 CNS; M14 melanoma; NCI-H226 lung; UACC-257 melanoma; OVCAR-5 ovarian; MDA-N; KM12 colon; DU-145 prostate; SK-OV-3 ovarian; IGROV1 ovarian; HCT-116 colon; PC-3 prostate; CCRF-CEM leukemia; MALME-3M melanoma; CAKI-1 renal; K-562 leukemia.
Common to all, as to experiment: NCI-60 cell line screen, 48 h

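Following 48 hours of exposure in 96-well plates, responses at five concentrations were used to interpolate endpoints linearly. TGI: concentration producing complete growth inhibition.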 Where only a bound is given, the exact number is not on record here.

For the molecule `O=c1[nH]c(=O)n(C2CC(O)C(CO)O2)cc1C1=NC1` (stereo unspecified), the TGI in the assay with SK-MEL-5 melanoma, in the assay with SK-MEL-2 melanoma, in the assay with HOP-62 NSCLC, in the assay with SF-539 CNS, in the assay on M14 melanoma and with NCI-H226 lung was over 100 µM throughout. Also, the TGI with UACC-257 melanoma, in the assay with OVCAR-5 ovarian, in the assay with MDA-N, in the assay with KM12 colon, in the assay on DU-145 prostate and in the assay with SK-OV-3 ovarian was over 100 µM each time. Further, the TGI in the assay with IGROV1 ovarian and in the assay with HCT-116 colon was over 100 µM throughout.

For the molecule `COc1ccc2sc(-n3nc4ccccc4c3Nc3nc4ccc(OC)cc4s3)nc2c1`, the TGI was 9.97 µM in the assay with SK-MEL-5 melanoma; over 52.4 µM with SK-MEL-2 melanoma; 4.43 µM in the assay with HOP-62 NSCLC; 4.5 µM with SF-539 CNS; 35.8 µM in the assay with M14 melanoma; 17.4 µM with PC-3 prostate. Also, the TGI was 13.9 µM with NCI-H226 lung; over 100 µM in the assay with CCRF-CEM leukemia; 14.8 µM in the assay with MALME-3M melanoma; 19.5 µM in the assay with UACC-257 melanoma; 13.8 µM in the assay on OVCAR-5 ovarian; 6.89 µM in the assay with CAKI-1 renal. Also, the TGI is over 38.9 µM in the assay on K-562 leukemia; 25.5 µM in the assay on KM12 colon; 17.9 µM in the assay with DU-145 prostate; 7.47 µM with SK-OV-3 ovarian; 8.47 µM in the assay with IGROV1 ovarian; 5.95 µM in the assay on HCT-116 colon.

Consider `Nc1nc(N)c2ncn(Cc3ccccc3CCl)c2n1`, for which the TGI with SK-MEL-5 melanoma, in the assay on SK-MEL-2 melanoma, with HOP-62 NSCLC, in the assay with SF-539 CNS, in the assay on M14 melanoma and in the assay on PC-3 prostate was over 100 µM in each case. Moreover, the TGI in the assay with NCI-H226 lung, with CCRF-CEM leukemia, in the assay on MALME-3M melanoma, in the assay with UACC-257 melanoma, in the assay on OVCAR-5 ovarian and in the assay with CAKI-1 renal was over 100 µM throughout. Besides, the TGI in the assay on K-562 leukemia, in the assay with KM12 colon, in the assay on DU-145 prostate, with SK-OV-3 ovarian, in the assay with IGROV1 ovarian and with HCT-116 colon was over 100 µM throughout.

On to `CC(=O)OCC1OC(SC2OC(COC(C)=O)C(OC(C)=O)C(OC(C)=O)C2OC(C)=O)C(OC(C)=O)C(OC(C)=O)C1OC(C)=O` (stereo unspecified), for which the TGI in the assay on SK-MEL-5 melanoma, in the assay with HOP-62 NSCLC, with SF-539 CNS, with NCI-H226 lung, in the assay with CCRF-CEM leukemia and in the assay on MALME-3M melanoma was over 100 µM each time. In addition, the TGI in the assay on UACC-257 melanoma, in the assay on OVCAR-5 ovarian, with CAKI-1 renal, with MDA-N, in the assay with K-562 leukemia and in the assay with KM12 colon was over 100 µM each time. For the same molecule, the TGI in the assay with DU-145 prostate, in the assay with SK-OV-3 ovarian, in the assay on IGROV1 ovarian and in the assay on HCT-116 colon was over 100 µM each time.

With `Cn1c(-c2ccccc2)cc2c3ccsc3c3ccsc3c21`, the TGI with SK-MEL-5 melanoma, in the assay on SK-MEL-2 melanoma, with HOP-62 NSCLC, with SF-539 CNS, in the assay on M14 melanoma and in the assay on PC-3 prostate was over 100 µM in each case. The TGI with NCI-H226 lung, in the assay on MALME-3M melanoma, with UACC-257 melanoma, in the assay on OVCAR-5 ovarian, with CAKI-1 renal and with MDA-N was over 100 µM throughout. Moreover, the TGI with KM12 colon, in the assay with DU-145 prostate, with SK-OV-3 ovarian, with IGROV1 ovarian and in the assay on HCT-116 colon was over 100 µM each time.

`Cc1ccc(OC2CC(n3cnc4ncnc(Cl)c43)OC2Oc2ccc(C)cc2)cc1` (stereo unspecified): the TGI in the assay with SK-MEL-5 melanoma was 46.4 µM; with SK-MEL-2 melanoma, 32.2 µM; in the assay on HOP-62 NSCLC, 90.2 µM; with SF-539 CNS it was 31.5 µM; in the assay on M14 melanoma, 65.8 µM; in the assay on PC-3 prostate it was 36.3 µM. The TGI with NCI-H226 lung was 31 µM; in the assay on MALME-3M melanoma it was over 100 µM; in the assay on UACC-257 melanoma, over 100 µM; in the assay on OVCAR-5 ovarian, 58.3 µM; with CAKI-1 renal, 5.93 µM; in the assay with MDA-N, over 100 µM. Further, the TGI is 74.4 µM in the assay with KM12 colon; 53.2 µM with DU-145 prostate; over 100 µM with SK-OV-3 ovarian; 55 µM in the assay with IGROV1 ovarian; over 100 µM with HCT-116 colon.

As to `Fc1ccc2nc3n(c2c1)C(c1c(Cl)cccc1Cl)SC3` (stereo unspecified), the TGI with SK-MEL-5 melanoma, with SK-MEL-2 melanoma, in the assay with HOP-62 NSCLC, in the assay with SF-539 CNS, in the assay on M14 melanoma and with PC-3 prostate was over 100 µM throughout. The TGI in the assay with NCI-H226 lung, in the assay on MALME-3M melanoma, in the assay on UACC-257 melanoma, with OVCAR-5 ovarian, in the assay with CAKI-1 renal and in the assay with MDA-N was over 100 µM throughout. Moreover, the TGI in the assay on KM12 colon, in the assay with DU-145 prostate, with SK-OV-3 ovarian, in the assay on IGROV1 ovarian and with HCT-116 colon was over 100 µM throughout.

On to `O=C1[C@@H]2[C@@H](c3ccccc3)[C@]2(Cl)C(=O)[C@H]2[C@H](c3ccccc3)[C@@]12Cl`, for which the TGI in the assay on SK-MEL-5 melanoma, with SK-MEL-2 melanoma, with HOP-62 NSCLC, in the assay with SF-539 CNS, with M14 melanoma and in the assay on PC-3 prostate was over 100 µM in each case. Further, the TGI with NCI-H226 lung, in the assay with CCRF-CEM leukemia, in the assay on MALME-3M melanoma, in the assay with UACC-257 melanoma, in the assay on OVCAR-5 ovarian and with CAKI-1 renal was over 100 µM in each case. The TGI in the assay with K-562 leukemia, with KM12 colon, in the assay with DU-145 prostate, with SK-OV-3 ovarian, with IGROV1 ovarian and in the assay on HCT-116 colon was over 100 µM each time.

As to `Cn1c2ccccc2c2c(=O)[nH]c(=O)[nH]c21`, the TGI with SK-MEL-5 melanoma, with SK-MEL-2 melanoma, with HOP-62 NSCLC, with SF-539 CNS, in the assay on M14 melanoma and in the assay on NCI-H226 lung was over 100 µM in each case. The TGI in the assay on CCRF-CEM leukemia, with MALME-3M melanoma, with UACC-257 melanoma, with OVCAR-5 ovarian, in the assay with CAKI-1 renal and with MDA-N was over 100 µM throughout. The TGI with K-562 leukemia, in the assay with KM12 colon, with DU-145 prostate, with SK-OV-3 ovarian, in the assay on IGROV1 ovarian and with HCT-116 colon was over 100 µM each time.

`N=c1c2c(-c3ccccc3)c[nH]c2ncn1N`: the TGI with SK-MEL-5 melanoma, with SK-MEL-2 melanoma, with HOP-62 NSCLC, in the assay with SF-539 CNS, in the assay with M14 melanoma and with PC-3 prostate was over 100 µM throughout. Moreover, the TGI in the assay on NCI-H226 lung, with CCRF-CEM leukemia, with UACC-257 melanoma, in the assay with OVCAR-5 ovarian, with CAKI-1 renal and in the assay on MDA-N was over 100 µM throughout. In addition, the TGI in the assay on K-562 leukemia, in the assay with KM12 colon, with SK-OV-3 ovarian, in the assay with IGROV1 ovarian and in the assay with HCT-116 colon was over 100 µM in each case.

As for `COC(=O)c1ccc(C)cc1/C=C1\Cc2ccc(C)cc2C1=O`, the TGI was 29.7 µM with SK-MEL-5 melanoma; 39.5 µM in the assay with HOP-62 NSCLC; 28.3 µM in the assay on SF-539 CNS; 33.5 µM in the assay with M14 melanoma; over 100 µM in the assay with PC-3 prostate; 24.9 µM with NCI-H226 lung. Besides, the TGI with CCRF-CEM leukemia is over 100 µM; in the assay with MALME-3M melanoma, 30.1 µM; in the assay with UACC-257 melanoma, 51.5 µM; in the assay on OVCAR-5 ovarian, 42.3 µM; with CAKI-1 renal, 94.3 µM; with K-562 leukemia, 42.8 µM. Also, the TGI was 33.8 µM in the assay on KM12 colon, 39 µM in the assay on DU-145 prostate, 45.8 µM in the assay with IGROV1 ovarian and 23.2 µM in the assay on HCT-116 colon.

As for `CCOC(=O)C(C(=S)Nc1ccccc1)c1nn2c(=O)cc(C)nc2s1` (stereo unspecified), the TGI is 41.1 µM with SK-MEL-5 melanoma; 94.8 µM in the assay on SK-MEL-2 melanoma; over 100 µM with HOP-62 NSCLC; 86.6 µM in the assay on SF-539 CNS; 57.1 µM with M14 melanoma; 66.3 µM in the assay on PC-3 prostate. The TGI was 70 µM in the assay on NCI-H226 lung; over 100 µM in the assay with CCRF-CEM leukemia; 53.5 µM with MALME-3M melanoma; 52.2 µM in the assay on UACC-257 melanoma; over 100 µM in the assay on OVCAR-5 ovarian; 84.7 µM in the assay on CAKI-1 renal. Besides, the TGI was 49 µM in the assay on K-562 leukemia; 68.8 µM in the assay on KM12 colon; over 100 µM in the assay on DU-145 prostate; 65.7 µM with SK-OV-3 ovarian; over 100 µM in the assay with IGROV1 ovarian; 48.3 µM with HCT-116 colon.

Regarding `O=c1oc2cc(O)ccc2c(O)c1C(c1cccnc1)c1c(O)c2ccc(O)cc2oc1=O`, the TGI with SK-MEL-5 melanoma, in the assay on SK-MEL-2 melanoma, in the assay with HOP-62 NSCLC, in the assay with SF-539 CNS, in the assay on M14 melanoma and in the assay with PC-3 prostate was over 100 µM throughout. The TGI in the assay on NCI-H226 lung, with UACC-257 melanoma, in the assay with OVCAR-5 ovarian, in the assay on CAKI-1 renal, in the assay on MDA-N and in the assay with K-562 leukemia was over 100 µM throughout. Also, the TGI with KM12 colon, with DU-145 prostate, in the assay with SK-OV-3 ovarian, with IGROV1 ovarian and in the assay with HCT-116 colon was over 100 µM in each case.

These data come from PubChem BioAssay (NCI).
